Source: patent US20150133460A1 (Millennium Phamaceuticals, Inc., priority 2013, published 2015)

Test: Equilibrium aqueous solubility
Type: physicochemical
Conditions: physiologically relevant pH's

SMILES	solubility in water
COc1cc2c(N3CCN(C(=O)Nc4ccc(OC(C)C)cc4)CC3)ncnc2cc1OCCCN1CCCCC1.C[C@H](O)C(=O)O [Form 1, 4-[6-methoxy-7-(3-piperidin-1-yl-propoxy)quinazolin-4-yl]piperazine-1-carboxylic acid(4-isopropoxyphenyl)-amide (L)-lactate (I) Form 1]	greater than 450 mg/mL
COc1cc2c(N3CCN(C(=O)Nc4ccc(OC(C)C)cc4)CC3)ncnc2cc1OCCCN1CCCCC1.C[C@H](O)C(=O)O [Form 4, 4-[6-methoxy-7-(3-piperidin-1-yl-propoxy)quinazolin-4-yl]piperazine-1-carboxylic acid(4-isopropoxyphenyl)-amide (L)-lactate (I) Form 4]	greater than 325 mg/mL
